The IC50 is the point on the concentration scale where inhibition reaches its midpoint.

Results on 21 molecules are retold here after patent US20230113037A1 (Bayer Aktiengesellschaft, priority 2019, published 2023).

Experiment [1] addresses T1, AHR (Homo sapiens, UniProt P35869).
T1 construct: U87 MG glioblastoma cells (ATCC #HTB-14) endogenously expressing AHR; endogenous in cells; host or cells: U87 MG glioblastoma cells (ATCC #HTB-14)
T1 sequence (P35869 11-848): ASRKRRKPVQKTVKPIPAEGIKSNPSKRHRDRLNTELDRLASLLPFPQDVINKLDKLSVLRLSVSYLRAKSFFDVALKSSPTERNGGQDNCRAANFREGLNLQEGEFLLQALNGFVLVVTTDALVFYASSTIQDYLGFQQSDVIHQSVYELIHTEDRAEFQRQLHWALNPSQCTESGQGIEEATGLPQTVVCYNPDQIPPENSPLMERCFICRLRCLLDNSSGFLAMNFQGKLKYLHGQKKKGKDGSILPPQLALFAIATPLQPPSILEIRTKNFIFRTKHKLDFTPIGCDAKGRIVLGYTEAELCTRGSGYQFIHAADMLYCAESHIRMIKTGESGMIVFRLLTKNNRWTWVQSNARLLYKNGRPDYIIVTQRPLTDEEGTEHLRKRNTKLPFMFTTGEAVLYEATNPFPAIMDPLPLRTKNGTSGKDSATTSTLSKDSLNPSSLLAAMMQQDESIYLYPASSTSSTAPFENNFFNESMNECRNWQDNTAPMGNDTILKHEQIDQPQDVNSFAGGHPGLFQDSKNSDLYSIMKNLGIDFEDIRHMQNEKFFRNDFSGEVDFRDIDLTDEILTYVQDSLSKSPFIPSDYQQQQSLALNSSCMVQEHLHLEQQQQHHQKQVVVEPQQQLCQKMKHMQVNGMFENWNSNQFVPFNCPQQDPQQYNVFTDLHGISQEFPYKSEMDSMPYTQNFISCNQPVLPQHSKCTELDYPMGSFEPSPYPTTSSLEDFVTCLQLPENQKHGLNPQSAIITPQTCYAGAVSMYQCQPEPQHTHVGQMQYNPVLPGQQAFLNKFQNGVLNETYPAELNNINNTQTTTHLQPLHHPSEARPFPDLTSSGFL
Briefly: In vitro assay 1: antagonism in human cell line (AHR transactivation, firefly luciferase reporter, kynurenic acid prestimulated). The class given is cell-based. To be noted: AHR Antagonism Human IC50 [M]. The procedure, abridged:
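U87 MG glioblastoma cells with endogenous AHR, stably carrying a DRE-driven firefly luciferase reporter and constitutive Renilla reporter, prestimulated with kynurenic acid before compound addition. Firefly and Renilla read by dual luciferase; Renilla flags toxicity; normalized to controls (150 μM kynurenic acid + 5 μM staurosporine as full inhibition); repeat values averaged or median.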
(Reporter assays use an easily measured gene product as a stand-in for the process of interest.)

In experiment [2] the target is T2, AHR (Mus musculus, UniProt P30561).
T2 sequence (P30561 1-848 P471L/N533S/M589L): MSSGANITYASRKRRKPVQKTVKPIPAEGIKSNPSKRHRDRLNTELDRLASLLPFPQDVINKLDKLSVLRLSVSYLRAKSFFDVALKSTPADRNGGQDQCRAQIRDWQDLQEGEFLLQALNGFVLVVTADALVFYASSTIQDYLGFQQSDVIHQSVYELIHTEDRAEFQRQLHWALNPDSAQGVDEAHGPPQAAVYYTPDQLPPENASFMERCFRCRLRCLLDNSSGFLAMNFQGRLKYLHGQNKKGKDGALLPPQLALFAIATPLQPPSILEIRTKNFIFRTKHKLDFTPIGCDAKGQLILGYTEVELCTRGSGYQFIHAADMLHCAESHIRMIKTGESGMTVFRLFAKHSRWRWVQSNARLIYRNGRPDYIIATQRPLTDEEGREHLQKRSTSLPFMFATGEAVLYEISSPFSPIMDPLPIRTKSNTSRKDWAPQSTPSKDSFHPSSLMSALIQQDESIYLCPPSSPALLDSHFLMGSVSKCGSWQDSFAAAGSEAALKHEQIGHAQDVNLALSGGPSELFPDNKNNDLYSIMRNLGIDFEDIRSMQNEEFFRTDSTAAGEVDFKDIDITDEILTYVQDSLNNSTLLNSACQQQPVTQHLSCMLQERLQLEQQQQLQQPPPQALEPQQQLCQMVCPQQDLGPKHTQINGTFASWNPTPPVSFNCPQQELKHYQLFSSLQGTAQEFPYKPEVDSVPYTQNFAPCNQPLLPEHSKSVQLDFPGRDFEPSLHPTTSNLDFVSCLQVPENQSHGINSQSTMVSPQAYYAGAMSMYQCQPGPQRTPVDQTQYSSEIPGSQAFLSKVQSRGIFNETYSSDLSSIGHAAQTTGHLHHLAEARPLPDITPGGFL
Description: In vitro assay 3: antagonism in mouse cell line (AHR transactivation, firefly luciferase reporter, kynurenic acid prestimulated). The class given is cell-based. The settings on record: mouse Hepa 1c1c7 cells, 200 μM kynurenic acid, 20 hours, read-out: AHR Antagonism Mouse IC50. A digest of the protocol:
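Mouse cells stably carrying a DRE-driven AHR-inducible firefly luciferase reporter were prestimulated with the endogenous agonist kynurenic acid before compound addition. Luciferase read by SteadyGlo; cells without kynurenic acid served as full-inhibition control, with normalization to positive and negative controls. Repeat tests reported as mean or median.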

As to `COc1ccc2nc(N[C@@H]3CCCCNC3=O)n3nc(-c4ccccc4F)nc3c2c1` [Example 240, (3R)-3-{[2-(2-fluorophenyl)-9-methoxy[1,2,4]triazolo[1,5-c]quinazolin-5-yl]amino}azepan-2-one], the results for the IC50 in experiment [1] and in experiment [2] were 4.08e-08 M and 0.171 µM, respectively.
With `COc1ccc(-c2nc3c4cc(C)ccc4nc(N[C@@H]4CCCCNC4=O)n3n2)cc1` [Example 241, (3R)-3-{[2-(4-methoxyphenyl)-9-methyl[1,2,4]triazolo[1,5-c]quinazolin-5-yl]amino}azepan-2-one], the values for the concentration for half-maximal inhibition (IC50) in experiment [1] and in experiment [2] were 1.27e-09 M and 0.00193 µM, respectively.
The matching figures for `COc1ccc(-c2nc3c4cc(Br)ccc4nc(N[C@@H]4CCCCNC4=O)n3n2)cc1` [Example 242, (3R)-3-{[9-bromo-2-(4-methoxypheny)[1,2,4]triazolo[1,5-c]quinazolin-5-yl]amino}azepan-2-one]: 3.06e-09 M and 0.00302 µM.
Regarding `COc1ccc(-c2nc3c4c(C)cccc4nc(N[C@@H]4CCCCNC4=O)n3n2)cc1` [Example 243, (3R)-3-{[2-(4-methoxyphenyl)-10-methyl[1,2,4]triazolo[1,5-c]quinazolin-5-yl]amino}azepan-2-one], the IC50 in experiment [1] came to 4.02e-09 M; in experiment [2] it was 0.0148 µM.
Regarding `Cn1cc(-c2nc3c4c(F)cccc4nc(N[C@@H]4CCCCNC4=O)n3n2)cn1` [Example 244, (3R)-3-{[10-fluoro-2-(1-methyl-1H-pyrazol-4-yl)[1,2,4]triazolo[1,5-c]quinazolin-5-yl]amino}azepan-2-one], the IC50 in experiment [1] is 2.17e-08 M; in experiment [2], 0.0667 µM.
On to `COc1ccc(-c2nc3c4c(OC)cccc4nc(N[C@@H]4CCCCNC4=O)n3n2)cc1` [Example 245, (3R)-3-{[10-methoxy-2-(4-methoxyphenyl)[1,2,4]triazolo[1,5-c]quinazolin-5-yl]amino}azepan-2-one], for which the half-maximal inhibitory concentration (IC50) in experiment [1] amounted to 3.21e-08 M; in experiment [2] it was 0.31 µM.
Take `COc1ccc(-c2nc3c4c(C#N)cccc4nc(N[C@@H]4CCCCNC4=O)n3n2)cc1` [Example 246, 2-(4-methoxyphenyl)-5-{[(3R)-2-oxoazepan-3-yl]amino}[1,2,4]triazolo[1,5-c]quinazoline-10-carbonitrile]: the IC50 in experiment [1] is 3.32e-09 M; in experiment [2], 0.0112 µM.
For `Cn1cc(-c2nc3c4c(C#N)cccc4nc(N[C@@H]4CCCCNC4=O)n3n2)cn1` [Example 247, 2-(1-methyl-1H-pyrazol-4-yl)-5-{[(3R)-2-oxoazepan-3-yl]amino}[1,2,4]triazolo[1,5-c]quinazoline-10-carbonitrile] the same measures were 3.08e-07 M and 0.591 µM.
For `N#Cc1cccc2nc(N[C@@H]3CCCCNC3=O)n3nc(-c4ccc(F)cc4)nc3c12` [Example 248, 2-(4-fluorophenyl)-5-{[(3R)-2-oxoazepan-3-yl]amino}[1,2,4]triazolo[1,5-c]quinazoline-10-carbonitrile] the same measures were 5.71e-09 M and 0.00182 µM.
Consider `N#Cc1cccc2nc(N[C@@H]3CCCCNC3=O)n3nc(-c4cccc(F)c4)nc3c12` [Example 249, 2-(3-fluorophenyl)-5-{[(3R)-2-oxoazepan-3-yl]amino}[1,2,4]triazolo[1,5-c]quinazoline-10-carbonitrile], for which the figures for the IC50 in experiment [1] and in experiment [2] were 2.96e-08 M and 0.00363 µM, respectively.
For the molecule `COC(=O)c1cccc2c1nc(N[C@@H]1CCCCNC1=O)n1nc(-c3ccc(OC)cc3)nc21` [Example 250, Methyl 2-(4-methoxyphenyl)-5-{[(3R)-2-oxoazepan-3-yl]amino}[1,2,4]triazolo[1,5-c]quinazoline-7-carboxylate], the IC50 in experiment [1] turned out to be 1.43e-08 M; in experiment [2], 0.135 µM.
The matching figures for `COC(=O)c1cccc2nc(N[C@@H]3CCCCNC3=O)n3nc(-c4ccc(OC)cc4)nc3c12` [Example 252, methyl 2-(4-methoxyphenyl)-5-{[(3R)-2-oxoazepan-3-yl]amino}[1,2,4]triazolo[1,5-c]quinazoline-10-carboxylate]: 6.55e-08 M and 0.0498 µM.
For `Cn1cc(-c2nc3c4cccc(Cl)c4nc(N[C@@H]4CNCCNC4=O)n3n2)cn1` [Example 253, (6R)-6-{[7-Chloro-2-(1-methyl-1H-pyrazol-4-yl)[1,2,4]triazolo[1,5-c]quinazolin-5-yl]amino}-1,4-diazepan-5-one] the same measures were 2.71e-08 M and 0.0368 µM.
For `O=C1NCCNC[C@H]1Nc1nc2ccccc2c2nc(-c3ccc(Br)cc3Cl)nn12` [Example 255, (6R)-6-{[2-(4-bromo-2-chlorophenyl)[1,2,4]triazolo[1,5-c]quinazolin-5-yl]amino}-1,4-diazepan-5-one] the same measures were 4.98e-08 M and 0.0051 µM.
As for `Cn1ccc(-c2nc3c4ccccc4nc(N[C@@H]4CNCCNC4=O)n3n2)n1` [Example 257, (6R)-6-{[2-(1-methyl-1H-pyrazol-3-yl)[1,2,4]triazolo[1,5-c]quinazolin-5-yl]amino}-1,4-diazepan-5-one], the half-inhibitory concentration (IC50) stood at 6.29e-06 M in experiment [1] and 12.1 µM in experiment [2].
For `O=C1NCCNC[C@H]1Nc1nc2ccccc2c2nc(-c3ccco3)nn12` [Example 258, (6R)-6-{[2-(furan-2-yl)[1,2,4]triazolo[1,5-c]quinazolin-5-yl]amino}-1,4-diazepan-5-one] the same measures were 7.15e-07 M and 0.398 µM.
`O=C1NCCNC[C@H]1Nc1nc2ccccc2c2nc(-c3cccc(F)c3)nn12` [Example 261, (6R)-6-{[2-(3-fluorophenyl)[1,2,4]triazolo[1,5-c]quinazolin-5-yl]amino}-1,4-diazepan-5-one]: the IC50 in experiment [1] came to 7.39e-08 M; in experiment [2] it was 0.0466 µM.
As to `O=C1NCCNC[C@H]1Nc1nc2ccccc2c2nc(-c3ccccc3C(F)(F)F)nn12` [Example 262, (6R)-6-({2-[2-(trifluoromethyl)phenyl][1,2,4]triazolo[1,5-c]quinazolin-5-yl}amino)-1,4-diazepan-5-one], the IC50 in experiment [1] was found to be 1.37e-06 M; in experiment [2] it was 0.0857 µM.
For `O=C1NCCNC[C@H]1Nc1nc2ccccc2c2nc(-c3cccc(Cl)c3Cl)nn12` [Example 263, (6R)-6-{[2-(2,3-dichlorophenyl)[1,2,4]triazolo[1,5-c]quinazolin-5-yl]amino}-1,4-diazepan-5-one] the same measures were 3.86e-07 M and 0.00893 µM.
For `O=C1NCCNC[C@H]1Nc1nc2ccccc2c2nc(-c3cn[nH]c3)nn12` [Example 264, (6R)-6-{[2-(1H-pyrazol-4-yl)[1,2,4]triazolo[1,5-c]quinazolin-5-yl]amino}-1,4-diazepan-5-one], the figures for the IC50 in experiment [1] and in experiment [2] were greater than 2e-05 M and greater than 20 µM, respectively.
`COc1ccc(-c2nc3c4cccc(OC)c4nc(N[C@@H]4CNCCNC4=O)n3n2)cc1` [Example 265, (6R)-6-{[7-methoxy-2-(4-methoxyphenyl)[1,2,4]triazolo[1,5-c]quinazolin-5-yl]amino}-1,4-diazepan-5-one]: the results for the concentration for half-maximal inhibition (IC50) in experiment [1] and in experiment [2] were 2.38e-07 M and 0.373 µM, respectively.
